Laboratory results: patent US20230173075A1, “ENCAPSULATED COMPOSITIONS AND USE OF OCTENYLSUCCINIC ANHYDRIDE STARCH AS EMULSIFYING AGENT” (Kansas State University Research Foundation, priority 2020, published 2023)

What was measured:
[1] = X-ray diffraction (XRD) physical state; type: physicochemical; conditions: Example 2 (CU), fresh
Procedure: The physical state of the spray-dried emulsions samples was obtained with an X-ray diffractometer (APD 3520, Philips, Netherlands). The instrument was operated at 35 kV, 20 mA with Cu-Kα radiation, a theta-compensating slit, and a diffracted beam monochromator. Data were recorded between the diffraction angles (2θ) of 2° and 35°. Differential scanning calorimetry (DSC) measurement of spray dried drug powder was studied with the TA instrument Q200 V24.4 (New Castle, Del., USA) in a range of −20 to 120° C. under nitrogen flow of 70 mL/min. The spray-dried emulsions powder (3-5 mg) was accurately weighed into DSC stainless steel pan. An empty pan was used as a reference. The heating rate of 10° C./min was used.
The physical state of the spray-dried emulsions samples was obtained with an X-ray diffractometer (APD 3520, Philips, Netherlands). The instrument was operated at 35 kV, 20 mA with Cu-Kα radiation, a theta-compensating slit, and a diffracted beam monochromator. Data were recorded between the diffraction angles (2θ) of 2° and 35°.

[2] = FF in a hard gelatin capsule, launched 1975; cited from earlier work

XRD physical state [1] | SMILES | maximum bioavailability [2] [%]
crystalline form | COc1cc(/C=C/C(=O)CC(=O)/C=C/c2ccc(O)c(OC)c2)ccc1O [CU, Curcumin] | 
 | CC(C)OC(=O)C(C)(C)Oc1ccc(C(=O)c2ccc(Cl)cc2)cc1 [FF, Fenofibrate] | 60
